According to PubChem BioAssay AID330 (DTP/NCI, 2004):
Where “and” joins values, the source holds several entries; their conditions need not be identical. Equal values may be shown once. Inconclusive results and toxic doses are left out. Rule for the calls: active = survival T/C of 150% or more; inactive = T/C below 125% in these data.

Tested on: P388 leukemia ip, CD2F1 mice, survival T/C
Assay: NCI In Vivo Anticancer Drug Screen. Data for tumor model P388 Leukemia (intraperitoneal) in CD2F1 (CDF1) mice
Conditions: endpoint: median survival time, higher = longer survival
Outline: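 Mice carrying the transplanted tumor received test compound or vehicle. Survival was recorded in each group, and the value is the treated-group measurement divided by that of the vehicle-treated control group.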

[1] = dose: 50.0 mg/kg/injection, schedule: Q01DX005 (ip), vehicle: saline
[2] = dose: 100.0 mg/kg/injection, schedule: Q01DX005 (ip), vehicle: saline
[3] = dose: 200.0 mg/kg/injection, schedule: Q01DX005 (ip), vehicle: saline
[4] = dose: 50.0 mg/kg/injection, schedule: Q01DX009 (ip), vehicle: saline with Tween-80
[5] = dose: 100.0 mg/kg/injection, schedule: Q01DX009 (ip), vehicle: saline with Tween-80
[6] = dose: 200.0 mg/kg/injection, schedule: Q01DX009 (ip), vehicle: saline with Tween-80
[7] = dose: 25.0 mg/kg/injection, schedule: Q01DX009 (ip), vehicle: saline
[8] = dose: 50.0 mg/kg/injection, schedule: Q01DX009 (ip), vehicle: Klucel (hydroxypropylcellulose) (HPC)
[9] = dose: 50.0 mg/kg/injection, schedule: Q01DX009 (ip), vehicle: saline
[10] = dose: 100.0 mg/kg/injection, schedule: Q01DX009 (ip), vehicle: Klucel (hydroxypropylcellulose) (HPC)
[11] = dose: 50.0 mg/kg/injection, schedule: Q01DX005 (ip), vehicle: saline with Tween-80
[12] = dose: 100.0 mg/kg/injection, schedule: Q01DX005 (ip), vehicle: saline with Tween-80
[13] = dose: 200.0 mg/kg/injection, schedule: Q01DX005 (ip), vehicle: saline with Tween-80

Measured: T/C

O=CN(CCO)CCO
inactive: [1] 107 % of control | [2] 94 % of control | [3] 114 % of control

CC(Cl)S(N)(=O)=O (centres undefined)
inactive: [1] 105 % of control | [2] 98 % of control | [3] 105 % of control

O=c1c2ccccc2c(=O)c2c1cc(Cl)c1[nH]c3c([nH]c12)c(Cl)cc1c(=O)c2ccccc2c(=O)c13
inactive: dose: 50.0 mg/kg/injection, schedule: Q01DX005 (ip), vehicle: Klucel (hydroxypropylcellulose) (HPC) 97 % of control | dose: 100.0 mg/kg/injection, schedule: Q01DX005 (ip), vehicle: Klucel (hydroxypropylcellulose) (HPC) 96 % of control | dose: 200.0 mg/kg/injection, schedule: Q01DX005 (ip), vehicle: Klucel (hydroxypropylcellulose) (HPC) 94 % of control

O=C(O)c1oc2ccccc2c1/C=C/c1ccccc1
inactive: [4] 100 % of control | [5] 97 % of control | [6] 100 % of control

O=C(Nc1ccccc1)Oc1ccc[nH]c1=O
inactive: dose: 25.0 mg/kg/injection, schedule: Q01DX009 (ip), vehicle: Klucel (hydroxypropylcellulose) (HPC) 117 % of control and 122 % of control | [7] 113 % of control and 120 % of control | [8] 117 % of control and 123 % of control | [9] 118 % of control | [10] 87 % of control

CSc1nc(COC(=O)NC(C)C)c(COC(=O)NC(C)C)n1C
inactive: dose: 12.5 mg/kg/injection, schedule: Q01DX005 (ip), vehicle: Klucel + Tween-80 113 % of control | dose: 25.0 mg/kg/injection, schedule: Q01DX005 (ip), vehicle: Klucel + Tween-80 116 % of control
active: dose: 100.0 mg/kg/injection, schedule: Q01DX005 (ip), vehicle: Klucel + Tween-80 156 % of control and 163 % of control | dose: 200.0 mg/kg/injection, schedule: Q01DX005 (ip), vehicle: Klucel + Tween-80 184 % of control

O=c1cnn2c(n1)OC1C(O)C(CO)OC12 (centres undefined)
inactive: [4] 97 % of control | [5] 97 % of control | [6] 93 % of control

O=C(Nc1ccc(Nc2ccncc2)cc1)c1ccc(N2C(=O)c3ccccc3C2=O)cc1[N+](=O)[O-]
inactive: [4] 98 % of control | [5] 95 % of control | [6] 95 % of control

CC(=O)OC1OC(=O)C(C)(C(C)=O)C1C (centres undefined)
inactive: dose: 12.5 mg/kg/injection, schedule: Q01DX005 (ip), vehicle: distilled water + alcohol 100 % of control | dose: 25.0 mg/kg/injection, schedule: Q01DX005 (ip), vehicle: distilled water + alcohol 100 % of control

O=C1C=CC(=Nc2ccc3[nH]c4ccccc4c3c2)C=C1
inactive: [11] 101 % of control and 92 % of control and 96 % of control | [12] 104 % of control and 93 % of control and 96 % of control | [13] 108 % of control and 121 % of control and 96 % of control | dose: 400.0 mg/kg/injection, schedule: Q01DX005 (ip), vehicle: saline with Tween-80 108 % of control

CC1=C(C)C(=O)C(CCl)=[C-]C1=O.[Co].[c-]1[c-][c-][cH-][c-]1
inactive: [11] 123 % of control

O=C1/C(=C/c2ccccc2[N+](=O)[O-])CCCc2ccccc21
inactive: [8] 94 % of control | [10] 103 % of control | dose: 200.0 mg/kg/injection, schedule: Q01DX009 (ip), vehicle: Klucel (hydroxypropylcellulose) (HPC) 105 % of control

c1ccc(CN2COC3CCCCCCC32)cc1 (centres undefined)
inactive: [1] 104 % of control | [2] 112 % of control | [3] 114 % of control

CC1=Nc2ccc([N+](=O)[O-])cc2N=C(C)C1
inactive: [4] 101 % of control | [5] 98 % of control | dose: 100.0 mg/kg/injection, schedule: Q04DX002 (ip), vehicle: saline 101 % of control | [6] 90 % of control | dose: 200.0 mg/kg/injection, schedule: Q04DX002 (ip), vehicle: saline 101 % of control | dose: 400.0 mg/kg/injection, schedule: Q04DX002 (ip), vehicle: saline 105 % of control

CN1CCCN(C)C1c1cc(Br)ccc1O
inactive: dose: 6.25 mg/kg/injection, schedule: Q01DX009 (ip), vehicle: saline sonified 95 % of control | dose: 12.5 mg/kg/injection, schedule: Q01DX009 (ip), vehicle: saline sonified 90 % of control | dose: 25.0 mg/kg/injection, schedule: Q01DX009 (ip), vehicle: saline sonified 100 % of control

O=c1c2ccccc2ncn1C12CC3CC(CC(C3)C1)C2
inactive: dose: 100.0 mg/kg/injection, schedule: Q04DX002 (ip), vehicle: Klucel (hydroxypropylcellulose) (HPC) 105 % of control | dose: 200.0 mg/kg/injection, schedule: Q04DX002 (ip), vehicle: Klucel (hydroxypropylcellulose) (HPC) 100 % of control | dose: 400.0 mg/kg/injection, schedule: Q04DX002 (ip), vehicle: Klucel (hydroxypropylcellulose) (HPC) 100 % of control

CCOC(=O)CCCCCNC(=S)N1c2c(nc(N)[nH]c2=O)NCC1CNc1ccc(C(=O)NC(CCC(=O)O)C(=O)O)cc1 (centres undefined)
inactive: dose: 100.0 mg/kg/injection, schedule: Q01DX001 (ip), vehicle: sodium bicarbonate 89 % of control | dose: 200.0 mg/kg/injection, schedule: Q01DX001 (ip), vehicle: sodium bicarbonate 90 % of control | dose: 400.0 mg/kg/injection, schedule: Q01DX001 (ip), vehicle: sodium bicarbonate 92 % of control

CC1(C)OC2(C)CCC1C1C2N1C(=O)Nc1ccccc1 (centres undefined)
inactive: [11] 101 % of control | [12] 106 % of control | [13] 101 % of control

O=C(O)C1Cc2c([nH]c3ccccc23)C(CCCCO)N1 (centres undefined)
inactive: dose: 6.25 mg/kg/injection, schedule: Q01DX009 (ip), vehicle: Klucel (hydroxypropylcellulose) (HPC) 101 % of control | dose: 12.5 mg/kg/injection, schedule: Q01DX009 (ip), vehicle: Klucel (hydroxypropylcellulose) (HPC) 99 % of control

CCCCOC(=O)c1ccccc1C(=O)O.CCCCOC(=O)c1ccccc1C(=O)O.[Cu+2]
inactive: dose: 6.25 mg/kg/injection, schedule: Q04DX003 (ip), vehicle: saline with Tween-80 102 % of control | dose: 12.5 mg/kg/injection, schedule: Q04DX003 (ip), vehicle: saline with Tween-80 96 % of control | dose: 25.0 mg/kg/injection, schedule: Q04DX003 (ip), vehicle: saline with Tween-80 102 % of control

CSc1c2c(c(C)c3c1[nH]c1ccccc13)C=NCC2
inactive: dose: 6.25 mg/kg/injection, schedule: Q04DX002 (ip), vehicle: distilled water + Tween-80 102 % of control | dose: 12.5 mg/kg/injection, schedule: Q04DX002 (ip), vehicle: distilled water + Tween-80 89 % of control | dose: 25.0 mg/kg/injection, schedule: Q04DX002 (ip), vehicle: distilled water + Tween-80 98 % of control | dose: 50.0 mg/kg/injection, schedule: Q04DX002 (ip), vehicle: distilled water + Tween-80 88 % of control | dose: 100.0 mg/kg/injection, schedule: Q04DX002 (ip), vehicle: distilled water + Tween-80 88 % of control

CC[C@@H]1C[C@@H]2CN3CCc4c([nH]c5ccc(OC)c(Cc6ccc(OC)c(OC)c6)c45)C(C(=O)OC)(C2)C13
inactive: dose: 2.5 mg/kg/injection, schedule: Q01DX009 (ip), vehicle: Klucel (hydroxypropylcellulose) (HPC) 88 % of control | dose: 5.0 mg/kg/injection, schedule: Q01DX009 (ip), vehicle: Klucel (hydroxypropylcellulose) (HPC) 103 % of control | dose: 10.0 mg/kg/injection, schedule: Q01DX009 (ip), vehicle: Klucel (hydroxypropylcellulose) (HPC) 92 % of control | dose: 20.0 mg/kg/injection, schedule: Q01DX009 (ip), vehicle: Klucel (hydroxypropylcellulose) (HPC) 95 % of control

CCC1=C(c2cccc(OC(C)=O)c2)C(C)c2ccc(OC(C)=O)cc21 (centres undefined)
inactive: dose: 60.0 mg/kg/injection, schedule: Q01DX005 (ip), vehicle: Klucel (hydroxypropylcellulose) (HPC) 96 % of control | dose: 120.0 mg/kg/injection, schedule: Q01DX005 (ip), vehicle: Klucel (hydroxypropylcellulose) (HPC) 95 % of control | dose: 240.0 mg/kg/injection, schedule: Q01DX005 (ip), vehicle: Klucel (hydroxypropylcellulose) (HPC) 95 % of control

CCCCC(N)P(=O)(O)O (centres undefined)
inactive: dose: 12.5 mg/kg/injection, schedule: Q01DX009 (ip), vehicle: saline 87 % of control | [7] 92 % of control | [9] 86 % of control | dose: 100.0 mg/kg/injection, schedule: Q01DX009 (ip), vehicle: saline 97 % of control

O=P(N1CC=CCC1)(N1CC1)N1CC1
active: dose: 5.56 mg/kg/injection, schedule: Q01DX009 (ip), vehicle: saline 154 % of control | dose: 8.33 mg/kg/injection, schedule: Q01DX009 (ip), vehicle: saline 209 % of control
inactive: dose: 4.4 mg/kg/injection, schedule: Q04DX003 (ip), vehicle: saline 118 % of control | dose: 6.6 mg/kg/injection, schedule: Q04DX003 (ip), vehicle: saline 113 % of control | dose: 10.0 mg/kg/injection, schedule: Q04DX003 (ip), vehicle: saline 118 % of control
